Experimental data taken from patent US9586962B2, “Disubstituted octahydropyrrolo [3,4-C] pyrroles as orexin receptor modulators” (Janssen Pharmaceutica NV, priority 2011, dated 2017).

Target: human orexin 2 receptor (Homo sapiens (Human), UniProt O43614)
Experiment: Human orexin 2 receptor radioligand binding ([3H]EMPA competition, HEK293 cells)
Conditions: HEK293 cells expressing human orexin-2 receptor, read-out: OR 2 Ki

Sequence of human orexin 2 receptor (O43614 whole entry): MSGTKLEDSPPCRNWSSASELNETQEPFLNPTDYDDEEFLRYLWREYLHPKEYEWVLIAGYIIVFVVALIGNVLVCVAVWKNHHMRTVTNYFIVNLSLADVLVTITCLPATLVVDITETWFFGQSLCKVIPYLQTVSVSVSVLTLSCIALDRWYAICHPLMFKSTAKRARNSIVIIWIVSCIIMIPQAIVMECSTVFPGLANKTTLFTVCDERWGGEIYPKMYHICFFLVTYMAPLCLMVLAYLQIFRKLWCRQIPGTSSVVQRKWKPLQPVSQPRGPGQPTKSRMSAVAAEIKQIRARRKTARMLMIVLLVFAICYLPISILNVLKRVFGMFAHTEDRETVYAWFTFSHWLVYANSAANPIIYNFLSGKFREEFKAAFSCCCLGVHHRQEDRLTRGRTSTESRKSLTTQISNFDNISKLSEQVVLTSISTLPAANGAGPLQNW

Going from `Cc1nc(N(C)C)cc(N2CC3CN(C(=O)c4cccc(F)c4-n4nccn4)CC3C2)n1` (centres unmarked) [Example 416, 6-[5-{[3-Fluoro-2-(2H-1,2,3-triazol-2-yl)phenyl]carbonyl}hexahydropyrrolo[3,4-c]pyrrol-2(1H)-yl]-N,N,2-trimethylpyrimidin-4-amine] to `Cc1nc(N(C)C)cc(N2CC3CN(C(=O)c4c(F)cccc4-n4nccn4)CC3C2)n1` (centres unmarked) [Example 418, 6-[5-{[2-Fluoro-6-(2H-1,2,3-triazol-2-yl)phenyl]carbonyl}hexahydropyrrolo[3,4-c]pyrrol-2(1H)-yl]-N,N,2-trimethylpyrimidin-4-amine], the Ki falls from 164 nM to 55 nM (3-fold). The second binds more tightly here.

Going from `Cc1nc(N(C)C)cc(N2CC3CN(C(=O)c4ccc(F)cc4-n4nccn4)CC3C2)n1` (centres unmarked) [Example 417, 6-[5-{[4-Fluoro-2-(2H-1,2,3-triazol-2-yl)phenyl]carbonyl}hexahydropyrrolo[3,4-c]pyrrol-2(1H)-yl]-N,N,2-trimethylpyrimidin-4-amine] to `COc1ccc(-n2nccn2)c(C(=O)N2CC3CN(c4cc(N(C)C)nc(C)n4)CC3C2)c1` (centres unmarked) [Example 423, 6-[5-{[5-Methoxy-2-(2H-1,2,3-triazol-2-yl)phenyl]carbonyl}hexahydropyrrolo[3,4-c]pyrrol-2(1H)-yl]-N,N,2-trimethylpyrimidin-4-amine], the Ki rises from 62 nM to 182 nM (2.9-fold).

`CCCOc1ccc(C)nc1C(=O)N1CC2CN(c3nc(C)cc(C)n3)CC2C1` (centres unmarked) [Example 419, 2-(4,6-Dimethylpyrimidin-2-yl)-5-[(6-methyl-3-propoxypyridin-2-yl)carbonyl]octahydropyrrolo[3,4-c]pyrrole] and `CCCOc1ccc(C)nc1C(=O)N1CC2CN(c3cc(N(C)C)nc(C)n3)CC2C1` (centres unmarked) [Example 424, N,N,2-Trimethyl-6-{5-[(6-methyl-3-propoxypyridin-2-yl)carbonyl]hexahydropyrrolo[3,4-c]pyrrol-2(1H)-yl}pyrimidin-4-amine] are within 1.5-fold of each other in Ki: 1070 nM for the first, 1160 nM for the second.

First: CCOc1ccc(C)nc1C(=O)N1CC2CN(c3cc(N(C)C)nc(C)n3)CC2C1 (centres unmarked) [Example 420, 6-{5-[(3-Ethoxy-6-methylpyridin-2-yl)carbonyl]hexahydro-pyrrolo[3,4-c]pyrrol-2(1H)-yl}-N,N,2-trimethylpyrimidin-4-amine]
Second: Cc1ccc(-c2ncc(C)o2)c(C(=O)N2CC3CN(c4cc(N(C)C)nc(C)n4)CC3C2)n1 (centres unmarked) [Example 429, N,N,2-Trimethyl-6-[5-{[6-methyl-3-(5-methyl-1,3-oxazol-2-yl)pyridin-2-yl]carbonyl}hexahydropyrrolo[3,4-c]pyrrol-2(1H)-yl]pyrimidin-4-amine]
The Ki of the first is 1.8-fold higher: 1350 nM for the first, 764 nM for the second.

First: Cc1cc(C)nc(N2CC3CN(C(=O)c4nc(C)ccc4-c4ncccn4)CC3C2)n1 (centres unmarked) [Example 421, 2-(4,6-Dimethylpyrimidin-2-yl)-5-[(6-methyl-3-pyrimidin-2-ylpyridin-2-yl)carbonyl]octahydropyrrolo[3,4-c]pyrrole]
Second: Cc1ccc(-c2ncccn2)c(C(=O)N2CC3CN(c4nc(C)c(C)c(C)n4)CC3C2)n1 (centres unmarked) [Example 445, 2-[(6-Methyl-3-pyrimidin-2-ylpyridin-2-yl)carbonyl]-5-(4,5,6-trimethylpyrimidin-2-yl)octahydropyrrolo[3,4-c]pyrrole]
The Ki of the first is 4-fold higher: 108 nM for the first, 27 nM for the second. The second binds more tightly here.

Compared with `Cc1cc(C)nc(N2CC3CN(C(=O)c4nc(C)ccc4-c4ncc(C)o4)CC3C2)n1` (centres unmarked) [Example 422, 2-(4,6-Dimethylpyrimidin-2-yl)-5-{[6-methyl-3-(5-methyl-1,3-oxazol-2-yl)pyridin-2-yl]carbonyl}octahydropyrrolo[3,4-c]pyrrole], `Cc1cc(C)nc(N2CC3CN(C(=O)c4nc(C)ccc4-n4ccnn4)CC3C2)n1` (centres unmarked) [Example 439, 2-(4,6-Dimethylpyrimidin-2-yl)-5-{[6-methyl-3-(1H-1,2,3-triazol-1-yl)pyridin-2-yl]carbonyl}octahydropyrrolo[3,4-c]pyrrole] is 9.5-fold higher in Ki: 1050 nM for the first, 10000 nM for the second. The first binds more tightly here.

Going from `Cc1nc(N(C)C)cc(N2CC3CN(C(=O)c4cc(F)ccc4-c4ncccn4)CC3C2)n1` (centres unmarked) [Example 425, 6-{5-[(5-Fluoro-2-pyrimidin-2-ylphenyl)carbonyl]hexahydropyrrolo[3,4-c]pyrrol-2(1H)-yl}-N,N,2-trimethylpyrimidin-4-amine] to `Cc1nc(N(C)C)cc(N2CC3CN(C(=O)c4c(F)cccc4-c4ncccn4)CC3C2)n1` (centres unmarked) [Example 426, 6-{5-[(2-Fluoro-6-pyrimidin-2-ylphenyl)carbonyl]hexahydropyrrolo[3,4-c]pyrrol-2(1H)-yl}-N,N,2-trimethylpyrimidin-4-amine], the Ki falls from 85 nM to 36 nM (2.4-fold).

First: Cc1nc(N(C)C)cc(N2CC3CN(C(=O)c4cccc(F)c4-c4ncccn4)CC3C2)n1 (centres unmarked) [Example 427, 6-{5-[(3-Fluoro-2-pyrimidin-2-ylphenyl)carbonyl]hexahydropyrrolo[3,4-c]pyrrol-2(1H)-yl}-N, N,2-trimethylpyrimidin-4-amine]
Second: Cc1ccc(-c2ncccn2)c(C(=O)N2CC3CN(c4cc(N(C)C)nc(C)n4)CC3C2)n1 (centres unmarked) [Example 428, N,N,2-Trimethyl-6-{5-[(6-methyl-3-pyrimidin-2-ylpyridin-2-yl)carbonyl]hexahydropyrrolo[3,4-c]pyrrol-2(1H)-yl}pyrimidin-4-amine]
The Ki of the first is 3.1-fold lower: 79 nM for the first, 244 nM for the second. The first binds more tightly here.

First: CCCOc1ccc(C)cc1C(=O)N1CC2CN(c3cc(N(C)C)nc(C)n3)CC2C1 (centres unmarked) [Example 430, N,N,2-Trimethyl-6-{5-[(5-methyl-2-propoxyphenyl)carbonyl]hexahydropyrrolo[3,4-c]pyrrol-2(1H)-yl}pyrimidin-4-amine]
Second: CCOc1ncccc1C(=O)N1CC2CN(c3cnc4cc(F)c(F)cc4n3)CC2C1 (centres unmarked) [Example 447, 2-{5-[(2-Ethoxypyridin-3 yl)carbonyl]hexahydropyrrolo[3,4-c]pyrrol-2(1H)-yl}-6,7-difluoroquinoxaline]
The Ki of the first is 2.1-fold lower: 270 nM for the first, 580 nM for the second.

`[2H]c1c(C([2H])([2H])[2H])nc(N2CC3CN(C(=O)c4cccc(F)c4-c4ncccn4)CC3C2)nc1C([2H])([2H])[2H]` (centres unmarked) [Example 431, 2-{4,6-Bis[(^2H3)methyl](^2H)pyrimidin-2-yl}-5-[(3-fluoro-2-pyrimidin-2-ylphenyl)carbonyl]octahydropyrrolo[3,4-c]pyrrole] and `Cc1cc(C)nc(N2CC3CN(C(=O)c4cccc(F)c4-c4nnc[nH]4)CC3C2)n1` (centres unmarked) [Example 432, 2-(4,6-Dimethylpyrimidin-2-yl)-5-{[3-fluoro-2-(1H-1,2,4-triazol-5-yl)phenyl]carbonyl}octahydropyrrolo[3,4-c]pyrrole] are within 1.5-fold of each other in Ki: 18 nM for the first, 23 nM for the second.

`Cc1cc(C)nc(N2CC3CN(C(=O)c4ccccc4-c4cn(Cc5ccccc5)nn4)CC3C2)n1` (centres unmarked) [Example 434, 2-{[2-(1-Benzyl-1H-1,2,3-triazol-4-yl)phenyl]carbonyl}-5-(4,6-dimethylpyrimidin-2-yl)octahydropyrrolo[3,4-c]pyrrole] and `Cc1cc(C)nc(N2CC3CN(C(=O)c4c(F)cccc4-c4nnc[nH]4)CC3C2)n1` (centres unmarked) [Example 437, 2-(4,6-Dimethylpyrimidin-2-yl)-5-{[2-fluoro-6-(1H-1,2,4-triazol-5-yl)phenyl]carbonyl}octahydropyrrolo[3,4-c]pyrrole] are within 1.5-fold of each other in Ki: 394 nM for the first, 270 nM for the second.

Compared with `COc1ccc(C(=O)N2CC3CN(c4nc(C)cc(CO)n4)CC3C2)c(-n2nccn2)c1` (centres unmarked) [Example 435, {2-[5-{[4-Methoxy-2-(2H-1,2,3-triazol-2-yl)phenyl]carbonyl}hexahydropyrrolo[3,4-c]pyrrol-2(1H)-yl]-6-methylpyrimidin-4-yl}methanol], `Cc1cc(C)nc(N2CC3CN(C(=O)c4ccc(OC(F)F)cc4-n4nccn4)CC3C2)n1` (centres unmarked) [Example 446, 2-{[4-(Difluoromethoxy)-2-(2H-1,2,3-triazol-2-yl)phenyl]carbonyl}-5-(4,6-dimethylpyrimidin-2-yl)octahydropyrrolo[3,4-c]pyrrole] is 3-fold higher in Ki: 24 nM for the first, 72 nM for the second. The first binds more tightly here.

`Cc1cc(CO)nc(N2CC3CN(C(=O)c4cccc(F)c4-c4nc(C)no4)CC3C2)n1` (centres unmarked) [Example 436, {2-[5-{[3-Fluoro-2-(3-methyl-1,2,4-oxadiazol-5-yl)phenyl]carbonyl}hexahydropyrrolo[3,4-c]pyrrol-2(1H)-yl]-6-methylpyrimidin-4-yl}methanol] and `O=C(c1cccc(F)c1-c1ncco1)N1CC2CN(c3cnc4cc(F)c(F)cc4n3)CC2C1` (centres unmarked) [Example 451, 6,7-Difluoro-2-[5-{[3-fluoro-2-(1,3-oxazol-2-yl)phenyl]carbonyl}hexahydropyrrolo[3,4-c]pyrrol-2(1H)-yl]quinoxaline] are within 1.5-fold of each other in Ki: 21 nM for the first, 29 nM for the second.

`Cc1nc(N2CC3CN(C(=O)c4ncc(Cl)cc4-n4nccn4)CC3C2)nc(C)c1C` (centres unmarked) [Example 442, 2-{[5-Chloro-3-(2H-1,2,3-triazol-2-yl)pyridin-2-yl]carbonyl}-5-(4,5,6-trimethylpyrimidin-2-yl)octahydropyrrolo[3,4-c]pyrrole] and `COc1cnc(C(=O)N2CC3CN(c4nc(C)c(C)c(C)n4)CC3C2)c(-n2nccn2)c1` (centres unmarked) [Example 444, 2-{[5-Methoxy-3-(2H-1,2,3-triazol-2-yl)pyridin-2-yl]carbonyl}-5-(4,5,6-trimethylpyrimidin-2-yl)octahydropyrrolo[3,4-c]pyrrole] are within 1.5-fold of each other in Ki: 26 nM for the first, 20 nM for the second.

Going from `CCOc1ncccc1C(=O)N1CC2CN(c3ncc4cc(F)ccc4n3)CC2C1` (centres unmarked) [Example 448, 2-{5-[(2-Ethoxypyridin-3-yl)carbonyl]hexahydropyrrolo[3,4-c]pyrrol-2(1H)-yl}-6-fluoroquinazoline] to `O=C(c1cccc(F)c1-c1ccccn1)N1CC2CN(c3cnc4cc(F)c(F)cc4n3)CC2C1` (centres unmarked) [Example 452, 6,7-Difluoro-2-{5-[(3-fluoro-2-pyridin-2-ylphenyl)carbonyl]hexahydropyrrolo[3,4-c]pyrrol-2(1H)-yl}quinoxaline], the Ki falls from 340 nM to 26 nM (13-fold).

First: O=C(c1cccc(F)c1I)N1CC2CN(c3cnc4cc(F)c(F)cc4n3)CC2C1 (centres unmarked) [Example 449, 6,7-Difluoro-2-{5-[(3-fluoro-2-iodophenyl)carbonyl]hexahydropyrrolo[3,4-c]pyrrol-2(1H)-yl}quinoxaline]
Second: O=C(c1cccc(F)c1-c1ncccc1F)N1CC2CN(c3cnc4cc(F)c(F)cc4n3)CC2C1 (centres unmarked) [Example 450, 6,7-Difluoro-2-[5-{[3-fluoro-2-(3-fluoropyridin-2-yl)phenyl]carbonyl}hexahydropyrrolo[3,4-c]pyrrol-2(1H)-yl]quinoxaline]
The Ki of the first is 4.4-fold higher: 160 nM for the first, 36 nM for the second.
